Here are results for 1 compound from patent US20200230074A1, “NICOTINE-CONTAINING TRANSPARENT TRANSDERMAL THERAPEUTIC SYSTEM” (LTS Lohmann Theraple-Systeme AG, priority 2017, published 2020).

Series [1] in a line: Storage of nicotine Eudragit E 100 solutions with antioxidants, visual colour (Pantone Colour Code). In kind it is physicochemical. As to conditions: stored in the dark 4 weeks at 60° C. or 80° C. The source says: Since polyisobutylenes contain terminal double bonds and therefore have to be stabilised by the antioxidant butyl hydroxytoluene, it was examined whether the avoidance of nicotine discolouration can be achieved by antioxidants. Pharmaceutically acceptable antioxidants were therefore added to nicotine in graded-concentrations in 2 test series to form solutions of Eudragit E 100 (cationic copolymer based on dimethylaminoethyl methacrylate, butyl methacrylate and methyl methacrylate in a ratio of 2:1:1). These solutions were stored in the dark for 4 weeks at 60° C. or 80° C.
Butyl hydroxytoluene (BHT), ascorbyl palmitate and tocopherol were tested as antioxidants.
The samples were examined visually after storage, and the relevant Pantone Colour Code for the colour of the sample was determined. The Pantone Colour Code is an internationally used colour system developed by the company Pantone LLC, USA. As a result it is possible to determine that the antioxidants were unable to suppress the discolouration of the nicotine.

Series [2] can be described thus: Analysis of nicotine degradation products in stored samples. In kind it is physicochemical. Particulars: conclusion from degradation products. On the procedure:
In order to check which decomposition products of nicotine cause the brown colour, sample Nic 0007 was analysed.

In the case of `CCCCCCCCCCCCCCCC(=O)OC[C@H](O)[C@H]1OC(=O)C(O)=C1O` [ascorbyl palmitate], the “suppression of the discolouration of nicotine” value in series [1] is given as “does not prevent the brown colouration of nicotine”. In series [2], the decomposition of nicotine result was “does prevent its decomposition”.
